Here are results for 19 molecules from patent publication US8063098B2, “GlyT1 receptor antagonists” (Hoffmann-La Roche Inc., priority 2008, dated 2011).

The structures appear in SMILES notation.

This experiment has as its target T1, mGlyT-1b (Mus musculus, UniProt P28571).
T1 construct: host or cells: Flp-in-CHO
T1 sequence (P28571 1-651 isoform P28571-2): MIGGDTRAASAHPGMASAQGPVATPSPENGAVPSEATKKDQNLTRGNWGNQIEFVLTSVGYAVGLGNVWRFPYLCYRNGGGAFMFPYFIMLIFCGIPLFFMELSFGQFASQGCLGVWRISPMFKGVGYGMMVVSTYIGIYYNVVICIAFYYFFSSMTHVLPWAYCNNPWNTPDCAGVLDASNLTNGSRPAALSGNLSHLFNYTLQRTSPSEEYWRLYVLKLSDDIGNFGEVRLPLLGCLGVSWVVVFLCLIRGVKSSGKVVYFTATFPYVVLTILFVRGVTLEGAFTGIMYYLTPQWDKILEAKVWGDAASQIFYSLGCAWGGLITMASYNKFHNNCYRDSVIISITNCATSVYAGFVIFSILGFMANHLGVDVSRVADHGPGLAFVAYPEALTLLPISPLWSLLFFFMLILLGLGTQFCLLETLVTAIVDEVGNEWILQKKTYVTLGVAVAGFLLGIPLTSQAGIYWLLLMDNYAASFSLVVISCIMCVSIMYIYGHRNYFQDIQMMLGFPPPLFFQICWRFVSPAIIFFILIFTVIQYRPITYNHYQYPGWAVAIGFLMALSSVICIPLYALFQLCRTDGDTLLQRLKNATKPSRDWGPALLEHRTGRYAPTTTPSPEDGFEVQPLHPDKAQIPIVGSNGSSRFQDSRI
Nature of the experiment: Glycine uptake inhibition assay (mGlyT-1b), [3H]-glycine uptake in Flp-in-CHO cells. In kind it is cell-based. Conditions: Flp-in-CHO cells stably transfected with mGlyT1b cDNA, 20 min at 22° C. preincubation. The protocol:
Nutrient mixture F-12 (Gibco Life-technologies), fetal bovine serum (FBS) 5%, (Gibco life technologies), Penicillin/Streptomycin 1% (Gibco life technologies), Hygromycin 0.6 mg/ml (Gibco life technologies), Glutamine 1 mM Gibco life technologies) • Uptake buffer (UB): 150 mM NaCl, 10 mM Hepes-Tris, pH 7.4, […], 2.5 mM KCl, 2.5 mM MgSO4, 10 mM (+) D-glucose. • Flp-in™-CHO (Invitrogen Cat n° R758-07) cells stably transfected with mGlyT1b cDNA. Glycine Uptake Inhibition Assay (mGlyT-1b)
On day 1 mammalian cells, (Flp-in™-CHO), transfected with mGlyT-1b cDNA, were plated at the density of 40,000 cells/well in complete F-12 medium, without hygromycin in 96-well culture plates. On day 2, the medium was aspirated and the cells were washed twice with uptake buffer (UB). The cells were then incubated for 20 min at 22° C. with either (i) no potential competitor, (ii) 10 mM non-radioactive glycine, (iii) a concentration of a potential inhibitor. A range of concentrations of the potential inhibitor was used to generate data for calculating the concentration of inhibitor resulting in 50% of the effect (e.g. IC50, the concentration of the competitor inhibiting glycine uptake of 50%). A solution was then immediately added containing [^3H]-glycine 60 nM (11-16 Ci/mmol) and 25 μM non-radioactive glycine. The plates were incubated with gentle shaking and the reaction was stopped by aspiration of the mixture and washing (three times) with ice-cold UB. The cells were lysed with scintillation liquid, shaken 3 hours and the radioactivity in the cells was counted using a scintillation counter.

A word on the IC50: it is the concentration needed to halve the response being measured. High values mean weaker potency, low ones greater potency.

The molecule `CSc1cc(C(F)(F)F)ccc1C(=O)NC(c1ccccc1)C1(N(C)C)CCC1` (stereo not shown) [Example 50, N-[(1-Dimethylamino-cyclobutyl)-phenyl-methyl]-2-methylsulfanyl-4-trifluoromethyl-benzamide] showed an IC50 of 0.01 µM.

Molecule `CSc1cc(C(F)(F)F)cc(C(F)(F)F)c1C(=O)NC(c1ccccc1)C1(N2CCCC2)CCC1` (single isomer, unassigned; (-)) [Example 31, (−)-2-Methylsulfanyl-N-[phenyl-(1-pyrrolidin-1-yl-cyclobutyl)-methyl]-4,6-bis-trifluoromethyl-benzamide] returned an IC50 of 0.0181 µM.

The molecule `CSc1cc(C(F)(F)F)ccc1C(=O)NC(c1ccccc1)C1(N2CCCCC2)CCC1` (stereo not shown) [Example 48, 2-Methylsulfanyl-N-[phenyl-(1-piperidin-1-yl-cyclobutyl)-methyl]-4-trifluoromethyl-benzamide] gave an IC50 of 0.0275 µM. This IC50 lies about 1.5-fold higher than the previous one.

`COc1cc(C(F)(F)F)cc(SC)c1C(=O)NC(c1ccccc1)C1(N2CCSCC2)CCC1` (stereo not shown) [Example 66, 2-Methoxy-6-methylsulfanyl-N-[phenyl-(1-thiomorpholin-4-yl-cyclobutyl)-methyl]-4-trifluoromethyl-benzamide] came in with an IC50 of 0.0915 µM. This IC50 is about 3.3-fold higher than that of the molecule before.

The molecule `COc1cc(Cl)ccc1C(=O)NC(c1ccccc1)C1(N2CCCC2)CCC1` (stereo not shown) [Example 47, 4-Chloro-2-methoxy-N-[phenyl-(1-pyrrolidin-1-yl-cyclobutyl)-methyl]-benzamide] displayed an IC50 of 0.0724 µM.

With `COc1cc(C(F)(F)F)cc(SC)c1C(=O)NC(c1ccccc1)C1(N2CCCC2)CCC1` (single isomer, unassigned; (+)) [Example 32, (+)-2-Methoxy-6-methylsulfanyl-N-[phenyl-(1-pyrrolidin-1-yl-cyclobutyl)-methyl]-4-trifluoromethyl-benzamide], the IC50 came to 0.0225 µM.

Regarding `COc1cc(C(F)(F)F)cc(SC)c1C(=O)NC(c1ccccc1)C1(N2C3CCC2COC3)CCC1` (racemic) [Example 71, (rac)-2-Methoxy-6-methylsulfanyl-N-{[1-(3-oxa-8-aza-bicyclo[3.2.1]oct-8-yl)-cyclobutyl]-phenyl-methyl}-4-trifluoromethyl-benzamide], the IC50 was 0.0521 µM.

Regarding `COc1cc(C(F)(F)F)cc(SC)c1C(=O)NC(c1ccc(F)cc1)C1(N2CCCC2)CCC1` (stereo not shown) [Example 38, N-[(4-Fluoro-phenyl)-(1-pyrrolidin-1-yl-cyclobutyl)-methyl]-2-methoxy-6-methylsulfanyl-4-trifluoromethyl-benzamide], the IC50 came out at 0.0175 µM.

In the case of `O=C(NC(c1ccccc1)C1(N2CCCC2)CCC1)c1ccc(C(F)(F)F)cc1Br` (stereo not shown) [Example 52, 2-Bromo-N-[phenyl-(1-pyrrolidin-1-yl-cyclobutyl)-methyl]-4-trifluoromethyl-benzamide], half-maximal inhibition (IC50) was put at 0.0127 µM.

On to `CSc1cc(C(F)(F)F)ccc1C(=O)NC(c1ccc(F)cc1)C1(N2CCCC2)CCC1` (stereo not shown) [Example 24, N-[(4-Fluoro-phenyl)-(1-pyrrolidin-1-yl-cyclobutyl)-methyl]-2-methylsulfanyl-4-trifluoromethyl-benzamide], for which the IC50 is 0.02 µM.

Take `COc1cc(C(F)(F)F)cc(SC)c1C(=O)NC(c1ccc(Cl)cc1)C1(N2CCCC2)CCC1` (stereo not shown) [Example 39, N-[(4-Chloro-phenyl)-(1-pyrrolidin-1-yl-cyclobutyl)-methyl]-2-methoxy-6-methylsulfanyl-4-trifluoromethyl-benzamide]: it took 0.0211 µM to reach half-maximal inhibition (IC50).

Consider `CSc1cc(C(F)(F)F)ccc1C(=O)NC(c1ccc(Cl)cc1)C1(N2CCCC2)CCC1` (stereo not shown) [Example 36, N-[(4-Chloro-phenyl)-(1-pyrrolidin-1-yl-cyclobutyl)-methyl]-methylsulfanyl-4-trifluoromethyl-benzamide], for which the 50% inhibitory concentration (IC50) is 0.0597 µM.

Turning to `Cc1cc(F)ccc1C(=O)NC(c1ccccc1)C1(N2CCCC2)CCC1` (stereo not shown) [Example 57, 4-Fluoro-2-methyl-N-[phenyl-(1-pyrrolidin-1-yl-cyclobutyl)-methyl]-benzamide], inhibition was half-maximal at 0.0596 µM (IC50).

The molecule `O=C(NC(c1ccccc1)C1(N2CCCC2)CCC1)c1ccc(C(F)(F)F)cc1-c1ccccc1` (stereo not shown) [Example 67, 5-Trifluoromethyl-biphenyl-2-carboxylic acid [phenyl-(1-pyrrolidin-1-yl-cyclobutyl)-methyl]-amide] came in with an IC50 of 0.0562 µM.

Molecule `COc1cc(C(F)(F)F)cc(SC)c1C(=O)NC(c1ccccc1)C1(N(C)C)CCC1` (stereo not shown) [Example 51, N-[(1-Dimethylamino-cyclobutyl)-phenyl-methyl]-2-methoxy-6-methylsulfanyl-4-trifluoromethyl-benzamide] gave an IC50 of 0.0142 µM.

Take `CCc1cc(C(F)(F)F)cc(C(F)(F)F)c1C(=O)NC(c1ccccc1)C1(N2CCCC2)CCC1` (stereo not shown) [Example 37]: 0.0398 µM corresponded to half-maximal inhibition (IC50). This IC50 is about 2.8-fold higher than that of the molecule before.

Turning to `COc1cc(C(F)(F)F)cc(SC)c1C(=O)NC(c1ccccc1)C1(N2CCCC2)CC1` (stereo not shown) [Example 10, 2-Methoxy-6-methylsulfanyl-N-[phenyl-(1-pyrrolidin-1-yl-cyclopropyl)-methyl]-4-trifluoromethyl-benzamide], half-maximal inhibition (IC50) required 0.0253 µM.

`COc1cc(C(F)(F)F)cc(SC)c1C(=O)NC(c1ccccc1)C1(N2CCN(C3CC3)CC2)CCC1` (stereo not shown) [Example 73, N-{[1-(4-Cyclopropyl-piperazin-1-yl)-cyclobutyl]-phenyl-methyl}-2-methoxy-6-methylsulfanyl-4-trifluoromethyl-benzamide] came in with an IC50 of 0.0308 µM. The IC50 values of the last two molecules are within 1.5-fold of each other.

As to `COc1cc(F)cc(SC)c1C(=O)NC(c1ccccc1)C1(N2CCCC2)CCC1` (stereo not shown) [Example 11, 4-Fluoro-2-Methoxy-6-methylsulfanyl-N-[phenyl-(1-pyrrolidin-1-yl-cyclobutyl)-methyl]-benzamide], the IC50 worked out at 0.0122 µM.
